Results: patent US20120270864A1, “2-QUINOLINONE AND 2-QUINOXALINONE-DERIVATIVES AND THEIR USE AS ANTIBACTERIAL AGENTS” (ASTRAZENECA AB, priority 2006, published 2012)
In brackets after ≈: the same amount, converted by molar mass.

Columns and labels:
Format in all cases: cell-based
[1] = tested on: Staphylococcus aureus (Sau) 516 cells; experiment: Bacterial Susceptibility Testing Methods 2 (microbroth dilution, growth inhibition); conditions: Staphylococcus aureus; for inhibition at 8 µg/mL: Tested Concentration 8 μg/mL, Staphylococcus aureus 516 cell growth suppressed compared to untreated sample
Excerpt: Compounds may be tested for antimicrobial activity by susceptibility testing using microbroth dilution methods recommended by CSLI. Compounds may be dissolved in dimethylsulfoxide and tested in 10 doubling dilutions in the susceptibility assays such that the final dimethylsulfoxide concentration in the assay is 2% (v/v). The Staphylococcus aureus (Sau) 516 cells used in the assay may be grown overnight on appropriate agar media and then suspended in the NCCLS-recommended liquid susceptibility-testing media. […] Plates may be incubated under appropriate conditions of atmosphere and temperature and for times according to NCCLS standard methods prior to being read. As used in Table 1 below, the term “inhibition” refers to the percentage of Staphylococcus aureus 516 cell growth that is suppressed (compared to an untreated sample) by the compound of the indicated example number. When tested in the above in-vitro assay, the compounds and salts of the example numbers listed below were tested at the indicated concentrations, providing the indicated inhibitions. In most instances, the highest concentrations at which the compounds were tested was 8 μg/mL. In some instances, however, compounds were tested at concentrations higher than 8 μg/mL, typically when the concentration was first measured in μM and was subsequently converted to μg/mL. In those cases in which compounds were tested at more than one concentration higher than 8 μg/mL, the concentration closest to 8 μg/mL is provided below.

[2] = tested on: Staphylococcus aureus; experiment: Bacterial Susceptibility Testing Methods 1 (MIC in liquid media, 96 well format); conditions: lowest drug concentration able to reduce growth by 80% or more, 37° C., 24 hours, read-out: MIC against Staphylococcus aureus
Excerpt: Compounds may be tested for antimicrobial activity by susceptibility testing in liquid media in a 96 well format. Compounds may be dissolved in dimethylsulfoxide and tested in 10 doubling dilutions in the susceptibility assays. The organisms used in the assay may be grown overnight on suitable agar media and then suspended in a liquid medium appropriate for the growth of the organism. The suspension may be adjusted to be equal to a 0.5 McFarland and a further 1 in 10 dilution may be made into the same liquid medium to prepare the final organism suspension in 100 μL. Plates may be incubated under appropriate conditions at 37° C. for 24 hours prior to reading. The Minimum Inhibitory Concentration (MIC) was determined as the lowest drug concentration able to reduce growth by 80% or more.
Compounds were evaluated against a panel of Gram-positive species, including Staphylococcus aureus, Streptococcus pneumoniae, Streptococcus pyogenes, and Enterococcus faecium. In addition, compounds were evaluated against a panel of Gram-negative species including Haemophilus influenzae, Escherichia coli and Moraxella catarrhalis.

[3] = tested on: Escherichia coli; experiment: as above; conditions: lowest drug concentration able to reduce growth by 80% or more, 37° C., 24 hours, read-out: MIC against Escherichia coli

| MIC [2] [µg/mL] | MIC [3] [µg/mL] | Compound | inhibition at 8 µg/mL [1] [%] | inhibition at 13 µg/mL ([1]; Tested Concentration 13 μg/mL, Staphylococcus aureus 516 cell growth) [%] |
| --- | --- | --- | --- | --- |
| 0.25 (≈ 0.527 µM) | 0.5 (≈ 1.05 µM) | N#Cc1ccc2ccc(=O)n(CCN3CC[C@H](NCc4ccc5c(n4)NC(=O)CO5)[C@H](O)C3)c2c1 [Example 2, 1-[2-((3R,4S)-3-Hydroxy-4-{[(3-oxo-3,4-dihydro-2H-pyrido[3,2-b][1,4]oxazin-6-yl)methyl]amino}piperidin-1-yl)ethyl]-2-oxo-1,2-dihydro quino line-7-carbonitrile] | 100 | – |
| – | – | N#Cc1ccc2ccc(=O)n(CCN3CC[C@H](NCc4ccc5c(n4)NC(=O)CO5)[C@H](F)C3)c2c1 [Example 52, 1-[2-((3R,4S)-3-fluoro-4-{[(3-oxo-3,4-dihydro-2H-pyrido[3,2-b][1,4]oxazin-6-yl)methyl]amino}piperidin-1-yl)ethyl]-2-oxo-1,2-dihydroquinoline-7-carbonitrile] | – | 100 |
| – | – | COc1ccc2ncc(=O)n(CCN3CC[C@H](NCc4ccc5c(n4)NC(=O)CO5)[C@H](O)C3)c2c1 [Example 8, 6-[({(3R,4S)-3-Hydroxy-1-[2-(7-methoxy-2-oxoquinoxalin-1(2H)-yl)ethyl]piperidin-4-yl}amino)methyl]-2H-pyrido[3,2-b][1,4]oxazin-3(4H)-one] | 99 | – |
| – | – | CO[C@H]1CN(CCn2c(=O)ccc3ccc(C#N)cc32)CC[C@H]1NCc1ccc2c(n1)NC(=O)CO2 [Example 20, 1-[2-((3S,4R)-3-M ethoxy-4-{[(3-oxo-3,4-dihydro-2H-pyrido[3,2-b][1,4]oxazin-6-yl)methyl]amino}piperidin-1-yl)ethyl]-2-oxo-1,2-dihydro quino line-7-carbonitrile] | 100 | – |
| – | – | COc1ccc2ncc(=O)n(CCN3CC[C@@H](NCc4ccc5c(n4)NC(=O)CO5)[C@@H](F)C3)c2c1 [Example 45, 6-[({(3S,4R)-3-Fluoro-1-[2-(7-methoxy-2-oxoquinoxalin-1(2H)-yl)ethyl]piperidin-4-yl}amino)methyl]-2H-pyrido[3,2-b][1,4]oxazin-3(4H)-one] | 97 | – |
